From patent US11945822B2, “Pyrazolo-triazine and/or pyrazolo-pxrimidine derivatives as selective inhibitor of cyclin dependent kinase” (QURIENT CO., LTD., priority 2018, dated 2024)
pIC50: −log10 of the molar value.

Legend:
HCT116 = assay: Cellular HCT116 viability assay (CellTiter-Glo, 72 hours); type: cell-based; conditions: Homo sapiens, HCT-116
In short: (§1)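 Cells plated in 96 wells and exposed to compound 72 h at 37 °C, 5% CO2, final DMSO below 0.1%, DMSO control. Viability by CellTiter-Glo luminescence, duplicate.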

MM.1S = assay: Cellular MM.1S viability assay (CellTiter-Glo, 72 hours); type: cell-based; conditions: Homo sapiens, MM1.S
Description: Human T-cell acute lymphoblastic leukemia cell line, MOLT-4 (ATCC, Cat #CRL-1582), Human multiple myeloma cell line, RPMI-8226 (Invitrogen, Cat #22400-089) and MM.1S (ATCC, Cat #CRL-2974), NSCLC (Non-small cell lung cancer) cell line H460 (ATCC, Cat #HTB-177), Human colon colorectal carcinoma cell line HCT116 (ATCC, Cat #CCL-247), Human acute monocytic leukemia cell line MV4-11 (ATCC, Cat #CRL-9591), OVCAR-3 (ATCC, Cat #HTB-161) and A2780 (ECACC, Cat #93112519) were obtained from ATCC. Cells were grown in RPMI-1640 media (Invitrogen, Cat #22400-089) supplemented with 10% FBS (Invitrogen, Cat #10099141) and 1% penicillin/streptomycin (Invitrogen, Cat #15070063) and cultured at 37° C., 5% CO2 in a humidified chamber. All cell lines were routinely tested for mycoplasma.
The effect of the CDK7 inhibitor to inhibit the growth of target cancer cells was evaluated through the 72 hours time period of viability assay. Briefly, the candidate cell line ware plated in 96 well plate at the following density of cells respectively. 1×10^4 cells/well for MOLT-4, RPMI-8226, MV4-11 and MM.1S, 5×10^3 for H460, HCT116 and OVCAR-3 and IX 10^3 for A2780. After 24 hours, the cells were treated with various concentrations of the compound (ranging from 0.0015 uM to 10 uM). DMSO solvent without compound served as a control and final DMSO concentration less than 0.1%. After 72 hours of incubation at 37° C., 5% CO2 incubator, cells were analyzed for the viability using the CellTiter-Glo Luminescent Cell Viability Assay (Promega, Cat #G7570). All viability assays were performed in duplicate and Luminescence was read using an Envision (Perkin Elmer, USA). Data was analyzed using XLfit software.

CDK2/Cyclin A = target: T1, CDK2/Cyclin A (Homo sapiens, UniProt P24941); assay: Enzymatic assay for CDK2 (FRET based LANCE Ultra kinase assay); type: biochemical; conditions: read-out: CDK2 enzymatic activity (IC50 range)
T1 construct: purchased Invitrogen PV6290
In short: (§2)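 Each CDK complex ([…]) phosphorylated 68 nM ULight-MBP peptide with ATP at Km for 60 min at 23° C., against 8 compound doses (4-fold dilutions). EDTA/Eu-anti-phospho-MBP detection, 60 min, then TR-FRET emission at 615 and 665 nm.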

CDK5/p25 = target: T2, CDK5/p25 (Homo sapiens, UniProt Q00535); assay: Enzymatic assay for CDK5 (FRET based LANCE Ultra kinase assay); type: biochemical; conditions: read-out: CDK5 enzymatic activity (IC50 range)
T2 construct: purchased Invitrogen PR8543B
T2 sequence (Q00535 whole entry): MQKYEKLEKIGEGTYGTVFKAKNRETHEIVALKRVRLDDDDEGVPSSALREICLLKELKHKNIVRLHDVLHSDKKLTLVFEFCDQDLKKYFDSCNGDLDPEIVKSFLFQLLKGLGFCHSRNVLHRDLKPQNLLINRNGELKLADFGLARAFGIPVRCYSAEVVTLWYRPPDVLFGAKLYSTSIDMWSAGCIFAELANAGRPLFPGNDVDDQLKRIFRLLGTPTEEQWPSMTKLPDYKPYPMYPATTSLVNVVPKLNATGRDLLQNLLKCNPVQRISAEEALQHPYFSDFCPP
T2 sequence (Q15078 99-307 partner limits assumed): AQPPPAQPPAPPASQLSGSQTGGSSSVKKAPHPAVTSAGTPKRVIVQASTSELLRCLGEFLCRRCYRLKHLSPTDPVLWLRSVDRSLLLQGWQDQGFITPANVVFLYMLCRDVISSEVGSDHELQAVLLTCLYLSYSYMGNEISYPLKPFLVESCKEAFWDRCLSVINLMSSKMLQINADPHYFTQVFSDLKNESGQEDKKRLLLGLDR
In short: as §2

H460 = assay: Cellular H460 viability assay (CellTiter-Glo, 72 hours); type: cell-based; conditions: Homo sapiens, NCI-H460
In short: as §1

MV4-11 = assay: Cellular MV4-11 viability assay (CellTiter-Glo, 72 hours); type: cell-based; conditions: Homo sapiens
In short: as §1

CDK1/Cyclin B = target: T3, CDK1/Cyclin B (Homo sapiens, UniProt P06493); assay: Enzymatic assay for CDK1 (FRET based LANCE Ultra kinase assay); type: biochemical; conditions: read-out: CDK1 enzymatic activity (IC50 range)
T3 construct: purchased Invitrogen PR4768C
T3 sequence (P06493 whole entry): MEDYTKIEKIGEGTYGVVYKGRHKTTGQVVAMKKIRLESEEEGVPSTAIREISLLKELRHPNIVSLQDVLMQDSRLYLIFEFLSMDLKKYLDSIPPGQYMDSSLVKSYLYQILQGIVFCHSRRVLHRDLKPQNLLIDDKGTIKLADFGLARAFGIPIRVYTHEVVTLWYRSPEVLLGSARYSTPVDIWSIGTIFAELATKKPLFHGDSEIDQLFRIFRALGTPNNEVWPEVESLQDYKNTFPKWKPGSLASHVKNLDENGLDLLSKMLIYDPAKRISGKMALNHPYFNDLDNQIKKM
T3 sequence (P14635 whole entry partner): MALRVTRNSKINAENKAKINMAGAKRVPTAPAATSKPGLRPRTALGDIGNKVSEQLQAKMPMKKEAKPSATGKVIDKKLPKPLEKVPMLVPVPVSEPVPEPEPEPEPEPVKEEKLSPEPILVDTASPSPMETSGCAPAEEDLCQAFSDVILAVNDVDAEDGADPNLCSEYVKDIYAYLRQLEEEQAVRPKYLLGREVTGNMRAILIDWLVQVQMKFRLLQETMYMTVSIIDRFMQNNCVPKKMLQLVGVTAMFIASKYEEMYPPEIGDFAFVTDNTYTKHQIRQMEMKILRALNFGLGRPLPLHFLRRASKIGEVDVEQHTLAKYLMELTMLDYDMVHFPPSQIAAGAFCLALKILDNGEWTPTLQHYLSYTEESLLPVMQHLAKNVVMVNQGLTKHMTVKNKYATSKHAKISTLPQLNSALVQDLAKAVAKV
In short: as §2

CDK7/Cyclin H/MNAT1 = target: T4, CDK7/Cyclin H/MNAT1 (Homo sapiens, UniProt P50613); assay: Enzymatic assay for CDK7 (FRET based LANCE Ultra kinase assay); type: biochemical; conditions: for pIC50: read-out: CDK7 enzymatic activity (IC50 range)
T4 construct: purchased Invitrogen PR6749B
T4 sequence (P50613 whole entry): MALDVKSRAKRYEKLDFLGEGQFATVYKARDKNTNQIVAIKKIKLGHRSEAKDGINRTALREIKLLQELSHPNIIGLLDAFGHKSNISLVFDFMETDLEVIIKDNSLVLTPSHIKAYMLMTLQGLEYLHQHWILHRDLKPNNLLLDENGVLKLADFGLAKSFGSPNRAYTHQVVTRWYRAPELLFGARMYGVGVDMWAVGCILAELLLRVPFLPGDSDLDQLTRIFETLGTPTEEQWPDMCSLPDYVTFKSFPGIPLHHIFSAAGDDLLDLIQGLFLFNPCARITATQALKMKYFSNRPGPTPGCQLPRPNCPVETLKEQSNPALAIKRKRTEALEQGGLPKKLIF
T4 sequence (P51946 whole entry partner): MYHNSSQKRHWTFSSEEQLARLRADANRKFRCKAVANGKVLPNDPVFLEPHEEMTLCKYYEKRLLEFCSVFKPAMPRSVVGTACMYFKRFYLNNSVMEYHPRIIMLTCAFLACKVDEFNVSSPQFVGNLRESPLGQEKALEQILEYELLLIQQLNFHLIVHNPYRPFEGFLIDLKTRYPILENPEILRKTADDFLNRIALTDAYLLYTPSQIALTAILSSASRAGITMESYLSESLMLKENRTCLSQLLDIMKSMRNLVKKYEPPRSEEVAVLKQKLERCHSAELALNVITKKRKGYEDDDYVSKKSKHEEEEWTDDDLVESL
T4 sequence (P51948 whole entry partner): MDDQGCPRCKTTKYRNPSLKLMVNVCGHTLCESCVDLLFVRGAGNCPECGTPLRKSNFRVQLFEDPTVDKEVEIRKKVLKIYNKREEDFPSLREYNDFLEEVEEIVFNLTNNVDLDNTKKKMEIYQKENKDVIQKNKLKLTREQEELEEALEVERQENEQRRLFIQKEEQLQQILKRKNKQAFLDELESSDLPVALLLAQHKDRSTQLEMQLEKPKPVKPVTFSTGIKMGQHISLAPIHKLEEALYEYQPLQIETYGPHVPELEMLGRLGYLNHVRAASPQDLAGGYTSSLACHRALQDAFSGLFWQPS
In short: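 LANCE Ultra TR-FRET kinase assay using a ULight-labeled peptide substrate and a Eu-labeled anti-phospho antibody, with ATP at its Km. Purified CDK/cyclin complex was added to compound after brief centrifugation.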

Structure (SMILES)	pIC50 (HCT116)	pIC50 (MM.1S)	pIC50 (CDK2/Cyclin A)	pIC50 (CDK5/p25)	pIC50 (H460)	pIC50 (MV4-11)	pIC50 (CDK1/Cyclin B)	CDK1/CDK7: Selectivity of CDK7 inhibition over CDK1 inhibition (CDK7/Cyclin H/MNAT1)	CDK2/CDK7: Selectivity of CDK7 inhibition over CDK2 inhibition (CDK7/Cyclin H/MNAT1)	CDK5/CDK7: Selectivity of CDK7 inhibition over CDK5 inhibition (CDK7/Cyclin H/MNAT1)	pIC50 (CDK7/Cyclin H/MNAT1)
CC(C)c1cnn2c(NCc3c(Cl)cccc3-n3ccc(C(=O)NC4CCNCC4)n3)nc(N3CCC(N)CC3)nc12 [Compound 196]	> 6.00	5.00 to 6.00	< 6.00	6.00 to 7.00	5.00 to 6.00	> 6.00	< 6.00	A (A=greater than 200 fold)	A (A=greater than 200 fold)	A (A=greater than 200 fold)	> 7.00
CC(C)c1cnn2c(NCc3ccccc3-n3cc(C(=O)N4CCN(C)CC4)cn3)nc(N3CCC(N)CC3)nc12 [Compound 154]	> 6.00	≥ 6.00	6.00 to 7.00	> 7.00	> 6.00	> 6.00	< 6.00	A (A=greater than 200 fold)	A (A=greater than 200 fold)	B (B=less than 200 fold, but greater than 20 fold)	> 7.00
CC(C)c1cnn2c(N[C@@H](C)c3ccccc3-n3cc(N4CCNCC4)cn3)nc(N3CCC(N)CC3)nc12 [Compound 192]	> 6.00	5.00 to 6.00	< 6.00	< 6.00	5.00 to 6.00	> 6.00	< 6.00	A (A=greater than 200 fold)	A (A=greater than 200 fold)	A (A=greater than 200 fold)	> 7.00
CC(C)c1cnn2c(NCc3c(Cl)cccc3-c3ccn(C4CCNCC4)n3)nc(N3CCC(N)CC3)nc12 [Compound 195]	> 6.00	≥ 6.00	< 6.00	6.00 to 7.00	> 6.00	> 6.00	< 6.00	A (A=greater than 200 fold)	A (A=greater than 200 fold)	A (A=greater than 200 fold)	> 7.00
CNC(=O)c1cc2cn(-c3ccccc3CNc3nc(N4CCC(N)CC4)nc4c(C(C)C)cnn34)nc2cc1C [Compound 160]	> 6.00	≥ 6.00	6.00 to 7.00	6.00 to 7.00	> 6.00	> 6.00	< 6.00	A (A=greater than 200 fold)	B (B=less than 200 fold, but greater than 20 fold)	B (B=less than 200 fold, but greater than 20 fold)	> 7.00
CC(C)c1cnn2c(NCc3c(Cl)cccc3-n3ccc(C(=O)N4CCNCC4)n3)nc(N3CCC(N)CC3)nc12 [Compound 198]	> 6.00	≥ 6.00	< 6.00	6.00 to 7.00	5.00 to 6.00	> 6.00	< 6.00	A (A=greater than 200 fold)	A (A=greater than 200 fold)	A (A=greater than 200 fold)	> 7.00
CC(C)c1cnn2c(NCc3c(Cl)cccc3-n3cc4c(n3)CCNC4=O)nc(N3CCC(N)CC3)nc12 [Compound 189]	> 6.00	≥ 6.00	< 6.00	6.00 to 7.00	> 6.00	> 6.00	< 6.00	A (A=greater than 200 fold)	A (A=greater than 200 fold)	B (B=less than 200 fold, but greater than 20 fold)	> 7.00
CC(C)c1cnn2c(NCc3ccccc3-n3cc(N4CCNCC4)cn3)nc(N3CCC(N)CC3)nc12 [Compound 180]	> 6.00	≥ 6.00	6.00 to 7.00	> 7.00	> 6.00	> 6.00	6.00 to 7.00	B (B=less than 200 fold, but greater than 20 fold)	B (B=less than 200 fold, but greater than 20 fold)	C (C=less than 20 fold)	> 7.00
CNC(=O)c1ccc2nc(-c3ccccc3CNc3nc(N4CCC(N)CC4)nc4c(C(C)C)cnn34)cnc2c1 [Compound 153]	> 6.00	≥ 6.00	< 6.00	6.00 to 7.00	> 6.00	> 6.00	< 6.00	A (A=greater than 200 fold)	A (A=greater than 200 fold)	B (B=less than 200 fold, but greater than 20 fold)	> 7.00
Cc1cccc(-c2cc3ccccc3[nH]2)c1CNc1nc(N2CCC(N)CC2)nc2c(C(C)C)cnn12 [Compound 184]	> 6.00	≥ 6.00	< 6.00	6.00 to 7.00	> 6.00	> 6.00	< 6.00	A (A=greater than 200 fold)	A (A=greater than 200 fold)	B (B=less than 200 fold, but greater than 20 fold)	> 7.00
